# According to patent US6693104B2, “Theobromine with an anti-carcinogenic activity” (Lotte Confectionery Co., Ltd., priority 2001, dated 2004):
# Assays:
# WB-F344 cells = experiment: Scrape Loading/Dye Transfer (SL/DT) assay: suppression of gap junction channel by H2O2; format: cell-based; settings: 200 μM theobromine, 400 μM H2O2, WB-F344 rat liver epithelial cells, Lucifer Yellow, FIG. 1
# Method: The effect of theobromine on the suppression of gap junction channel induced by H2O2 was examined according to a known method of Scrape Loading/Dye Transfer (SL/DT) assay (Upham, B. L., Kang, K. S., Cho, H. Y., & Trosko, J. E., Carcinogenesis, 18: 37-42, 1997), as further explained below.
# WB-F344 cells were used as a liver cell in order to examine its inhibitory effect on the suppression of gap junction channel in liver cells. The above liver cells were cultured in a MEM-media with 10% FBS, added with 100 IU/mL of penicillin and 100 μg/mL of streptomycin, in an incubator at 37° C. with 5% CO2 (Forma Scientific Co., Marjetta, Ohio, USA). The media compositions used in the above culture were purchased from GIBCO BRL (Grand Island, N.Y., USA). Thus cultured liver cells in media were transferred to each 2 mL petri dish (1×10^5 cells/mL) and cultured for 44 hr. Then the above culturing media were replaced with fresh media with various concentrations of theobromine while the control group was also replaced with fresh media only. Four hours after that, the media were treated theobromine with various concentrations 400 μM by H2O2 together while the control group was replaced with fresh medial. […]
# [1] = format: in vivo; settings: 0.5 g/kg, in DMSO diluted in water, observed for 7 days
# Method: The toxicity of theobromine of the present invention was performed as follows.
# SNUC2A = experiment: 3H thymidine uptake assay, colon cancer cells; format: cell-based; settings: various concentrations, FIG. 5
# SNU1 = experiment: 3H thymidine uptake assay, gastric cancer cells; format: cell-based; settings: SNU1, various concentrations, FIG. 4
# HepG2 = experiment: 3H thymidine uptake assay, liver cancer cells; format: cell-based; settings: HepG2, various concentrations, 72 hr, FIG. 3
# Method: The inhibitory effect of theobromine on the proliferation of liver cancer cells was examined by using ^3H thymidine uptake assay (Marshall, E. S. et al. European J. Cancer, 30A: 1370-1376, 1994). HepG2 was used as liver cancer cells. The HepG2 liver cancer cells were cultured in RPMI-1640 media with 10% FBS, 100 IU/mL of penicillin and 100 μg/mL of streptomycin, in a 37° C. incubator with 5% CO2 (Forma Scientific Co., Marjetta, Ohio, USA). The media were purchased from GIBCO BRL (Grand Island, N.Y., USA). Thus cultured HepG2 liver cancer cells were transferred to 96 well plates, each of which contains 2×10^4 cells and were added with various concentrations of theobromine obtained from the reference examples 1-3 and were cultured for 72 hr. Six hours prior to recovery of the above cells, each well was added with 1 μCi of ^3H-Thymidine (Sigma, St. Louis, Mo., USA). After completion of the culture, the cells were recovered into a glass fiber filter (Brandel Inc., Gaithersburg, Mass., USA) by using a recovery instrument (Cambridge Scientific Inc., Cambridge, Mass., USA). The incorporation of ^3H-thymidine of recovered cells after combining with 3 mL of scintillation cocktail solution (Wallac, Turku, Finland) was examined in a liquid scintillation counter (Wallac, Turku, Finland). The whole process was repeated three times according to the above method.
structure (smiles),measurement,setting,value
Cn1cnc2c1c(=O)[nH]c(=O)n2C [theobromine],inhibition of the suppression of gap junction channel by H2O2,WB-F344 cells,completely inhibit the suppression of gap junction channel
same,survival,[1],all mice survived
same,inhibition rate of DNA synthesis of colon cancer cells,SNUC2A,increased in a dose-dependent manner
same,inhibition rate of DNA synthesis of gastric cancer cells,SNU1,increased in a dose-dependent manner
same,inhibition rate of DNA synthesis of liver cancer cells,HepG2,increased in a dose-dependent manner
